Laboratory results taken from patent publication US11702402B2, “Small molecules that block proteasome-associated ubiquitin receptor RPN13 function and uses thereof” (DANA-FARBER CANCER INSTITUTE, INC., priority 2018, dated 2023).
pIC50: −log10 of the molar value. “Also recorded” adds a separate entry of the source.

Experiments:
[1] = test system: MM.1S cells co-cultured with patient pDCs; assay: MM.1S co-culture with patient pDCs (WST); format: cell-based, Human; settings: 48 hours
Excerpt: (§1) The IC50 of WL40 for cell lines is shown.

INA6 MM cells = assay: INA6 cell viability; format: cell-based, Human; settings: IL-6-dependent INA6; 48 hours
Excerpt: as §1

LC3A/B = assay: Autophagy marker LC3A/B immunoblot; format: cell-based, Human; settings: ANBL6.BR or MM.1S; versus DMSO or RA190
RPN13 = RPN13 (Homo sapiens, UniProt Q16186); assay: Rpn13 flow cytometry in MM.1S cells; format: cell-based; design: endogenous in cells; host or cells: MM.1S; MM.1S-CRBN KO; RPMI-8226; ANBL6.BR; settings: WL40 (400 nM) 16 hours, versus DMSO or RA190 (500 nM)
Protocol: FIGS. 19A-19I show the exemplary design and characterization of exemplary Rpn13 degrader WL40. […] WL40 was created by linking the Rpn13 inhibitor RA190 to the IMiD thalidomide as a ligand for the CRBN E3 ligase via a PEG linker. […] FIG. 19C is a schematic cartoon for the novel AlphaScreen assay to measure the binding activity of inhibitor with RPN13 proteins. […] FIG. 19E depicts immunoblot analysis of multiple myeloma 1S (MM.1S) cells, which were treated with WL40 or RA190 at the indicated concentrations and time periods; protein lysates were subjected to the immunoblot analysis using anti-Rpn13 or anti-tubulin Abs. FIG. 19F depicts flow cytometry analysis of MM.1S cells, which were treated with DMSO control, WL40 (400 nM), or RA190 (500 nM) for 16 hours; cells were then washed and stained with Rpn13 Ab conjugated with AlexaFluor-647, followed by the flow cytometry analysis. […] Data was quantified using FACS Diva (BD Biosciences, USA) and FlowJo (FlowJo LLC, USA). […]
Next, it was examined whether WL40 decreases cellular Rpn13 levels in MM cells. MM.1S cells were treated with various concentrations of WL40 (20 0 nM, 400 nM, or 800 nM) for 4 hours, 8 hours, and 16 hours; protein lysates were then analyzed for Rpn13 levels using immunoblot analysis. […] To further corroborate the findings, MM.1S cells were treated with WL40, and then analyzed intracellular alterations in Rpn13 using flow cytometry.

20S proteasome = assay: Proteasome activity assay in lysates of treated MM.1S cells; format: cell-based, Human; settings: cellular extracts of MM.1S cells treated 1 μM or 10 μM for 3 hours
Protocol: MM.1S cells, which were treated with DMSO control, bortezomib, or WL40 at indicated concentration for 3 hours; protein lysates were analyzed for different proteasome activities (CT-L, chymotrypsin-like; T-L, trypsin-like; C-L, caspase-like). FIG. 20B is a bar graph showing percent proteasome activity after normalization with DMSO control (mean±SD; n=3). Recombinant 20S proteasome was incubated with DMSO, bortezomib, or WL40 for 30 minutes, followed by assessment of the above-noted proteasome activities. FIG. 20C MM.1S cells were pretreated with exemplary proteasome inhibitor MG132 (10 μM) for 1 hour, followed by addition of WL40 (400 nM) for 8 hours. […] Total protein lysates were subjected to immunoblots for Rpn13 and α-tubulin. […] FIG. 20E ANBL6.BR cells were treated with WL40 (400 nM) or RA190 (500 nM) for 16 hours; protein lysates were subjected to immunoblot analysis using anti-Rpn13 or anti-β-actin Abs.
MM.1S cells were treated with WL40 (1 μM or 10 μM) or Bortezomib (1 μM) for 3 hours; cells were then harvested and lysed in lysis buffer, followed by removal of debris by centrifugation. Total protein (25 μg) was analyzed for proteasome activity using 20S proteasome Assay Kit (Calbiochem), as previously described.^33

CD138+ patient MM cells = assay: Viability of CD138+ patient MM cells (CellTiter-Glo); format: cell-based; settings: Homo sapiens, CD138+ patient MM cells (patients 1-4), 48 hours, read-out: cell viability IC50 range
Protocol: as §1
Human MM cell lines MM.1S, MM.1R, RPMI-8226, ANBL6.WT, ANBL6.BR, DOX40, INA6, and normal PBMCs were cultured in RPMI1640 complete medium. Informed consent was obtained from ah patients in accordance with the Helsinki protocol. MM CD138-positive cells, bone marrow stromal cells (BMSCs), and plasmacytoid dendritic cells (pDCs) from MM patients were isolated and cultured as described previously.^32

[2] = test system: MM.1S cells co-cultured with patient BMSCs; assay: MM.1S co-culture with patient BMSCs (WST); format: cell-based, Human; settings: 48 hours
Excerpt: as §1

Chain of RPN13 (Q16186 whole entry): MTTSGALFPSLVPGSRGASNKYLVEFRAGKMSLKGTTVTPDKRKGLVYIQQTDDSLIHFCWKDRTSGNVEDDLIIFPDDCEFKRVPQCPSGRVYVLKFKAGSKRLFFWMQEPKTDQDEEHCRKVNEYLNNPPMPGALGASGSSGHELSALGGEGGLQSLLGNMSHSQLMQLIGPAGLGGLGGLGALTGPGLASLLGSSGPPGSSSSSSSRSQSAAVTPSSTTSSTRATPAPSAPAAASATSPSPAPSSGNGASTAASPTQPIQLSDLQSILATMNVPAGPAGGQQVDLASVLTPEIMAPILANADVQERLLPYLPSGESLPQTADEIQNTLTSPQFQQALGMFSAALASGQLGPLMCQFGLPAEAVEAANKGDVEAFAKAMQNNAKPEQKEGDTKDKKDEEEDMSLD

Structure (SMILES): O=C1CCC(N2C(=O)c3cccc(NCCOCCOCCOCCC(=O)N[C@@H](Cc4ccccc4)C(=O)N4C/C(=C\c5ccc(Cl)c(Cl)c5)C(=O)/C(=C/c5ccc(Cl)c(Cl)c5)C4)c3C2=O)C(=O)N1 (stereo partly shown) [WL40]
- viability of MM cells in co-culture [1]: dose-dependent decrease in the viability of MM cells
- cytotoxic activity (cell viability) (INA6 MM cells): cytotoxic activity
- LC3A/B level / LC3 activation (LC3A/B): significant increase in LC3A/B; also recorded: more pronounced LC3 activation
- Rpn13 expression (flow cytometry) (RPN13): significant reduction in Rpn13 expression
- 20S proteasomal activities (chymotrypsin-like, trypsin-like, caspase-like) (20S proteasome): does not inhibit 20S proteasomal activities
- pIC50 (CD138+ patient MM cells): 6.77 to 7.02
- viability of MM cells in co-culture [2]: dose-dependent decrease in the viability of MM cells
